Test results: publication PMC3320615, “β-Microseminoprotein Endows Post Coital Seminal Plasma with Potent Candidacidal Activity by a Calcium- and pH-Dependent Mechanism” (PLoS Pathogens, 2012)

Assays:
[1] = tested on: Candida albicans ATCC 90028; test: CFU assay with C. albicans; type: cell-based; details: for Estimate (difference between means of log values): control - treatment
Description: Candida albicans strains: ATCC 90028, CAF-1-2, SC5814, BM4f35II68, vaginal clinical isolates from Dept. of Clincal Microbiology, Skåne University Hospital, SO_303369 and SO_503471. Candida parapsilosis strains: ATCC 90018, BD1800, BD17837, and BM24/68/09. Candida glabrata strains: ATCC 90030, clinical isolates from Dept. of Clincal Microbiology, Skåne University Hospital, SO_3336, SO_3400 and SO_503413. All strains were inoculated from frozen culture and grown in Yeast extract-Peptone-Dextrose (YPD) (Sigma) and on Sabourand Dextrose Broth (SAB) (Difco) plates at 30°C with 5% (v/v) CO2. If not otherwise stated, ATCC 90028 was used for candidacidal experiments.
(§1) Candida albicans was grown over night, washed, and resuspended in 10 mM Tris, 5 mM glucose, pH 7.4 or pH 4. Approximately 4×10^3 to 10^4 CFU of C. albicans were incubated with the test substance in low or neutral pH buffer for 4 h at 37°C. After incubation, the suspension was diluted and plated. Colonies were counted after two days incubation of the plates at 30°C. Bacteria from overnight cultures were inoculated in fresh medium and grown for 3 h, washed in 10 mM Tris, 5 mM glucose pH 7.4. Approximately 8×10^4 CFU were incubated with sample in 10 mM Tris, 5 mM glucose pH 7.4 or pH 4 for 1 h at 37°C, diluted, plated and incubated over night at 37°C and the colonies counted.
Statistical analysis was performed using SAS 9.2 software (SAS Institute, Cary, NC). Colony counts were log transformed. In order to choose the statistical method, interactions between the Treatment and Experiment were investigated. Treatments were screened by doing pair wise comparisons of each treatment to a control. Statistical tests used for the comparisons included MIXED procedure and LSMEANS statement. All tests where P-value<.05 were considered to indicate statistical significance. P-values were not adjusted for the multiple comparisons.
“Estimate” is the estimate of the difference between means of log values of treatment 1 and treatment 2

C. albicans = test: Antifungal gel overlay assay (AU-PAGE); type: cell-based, Candida albicans
Procedure: Gel overlay assay was performed essentially as described. Briefly, duplicate samples were run on native Acid Urea (AU-PAGE) gels in 5% (v/v) acetic acid at 100 V for 1 h 20 min. Candida albicans was grown over night, washed and resuspended in 10 mM NaPO4 pH 7.4 and approximately 1×10^5 CFU were added to 12 ml melted underlay agarose (10 mM NaPO4, pH 7.4, 0.03% SAB, 1% agarose type 1 (Sigma, St. Louis, MO)) and poured into a square Petri dish. One AU-gel was stained with Coomassie brilliant blue and one AU gel was washed 3×4 min in 10 mM NaPO4, pH 7.4 and then placed on top of the agarose and incubated for 4 h at 37°C. The AU gel was then removed and an overlay agarose (6% SAB, 1% agarosetype 1 (Sigma)) was poured on top of the underlay and incubated over night at 30°C. To make the clearing zones more visible, the agarose was stained with Coomassie brilliant blue followed by destaining.

[2] = Liposome leakage (carboxyfluorescein release); type: biochemical; details: control experiments with EDTA alone
Procedure: Subsequently, buffer (10 mM Tris, pH 7.4) was added together with 0.1 M carboxyfluorescein (CF) (Sigma, St Louis, MO). After hydration, the lipid mixture was subjected to eight freeze-thaw cycles consisting of freezing in liquid nitrogen and heating to 60°C. Unilamellar liposomes of about Ø140 nm were generated by multiple extrusions through polycarbonate filters (pore size 100 nm) mounted in a […] (Avestin, Ottawa, Canada) at 22°C. Untrapped CF was then removed by two gel filtrations (Sephadex G-50) at 22°C, with Tris buffer as eluent. CF release was determined by monitoring the emitted fluorescence at 520 nm from liposome dispersions (10 mM lipid in 10 mM Tris). An absolute leakage scale was obtained by disrupting the liposomes at the end of the experiment through addition of 0.8 mM Triton X100 (Sigma, St Louis, MO), causing 100% release and dequenching of CF. Although calcein is frequently used for pH-dependent leakage studies, the high charge of this dye has been noted to influence its leakage behavior in the presence of highly cationic peptides. Instead, therefore, CF was used as a leakage marker at both pH 6.0 and 7.4, avoiding pH-dependent fluorescence effects through neutralization prior to probing the limiting leakage in case of pH 6.0 leakage. Throughout, a SPEX-fluorolog 1650 0.22-m double spectrometer (SPEX Industries, Edison, NJ) was used for the liposome leakage assay. Measurements were performed in at least triplicate at 37°C.

[3] = tested on: S. pyogenes (M5 Manfredo); test: Antibacterial CFU assay; type: cell-based; details: purified MSP 10 µM + 20 µM EDTA or recombinant dialyzed MSP 10 µM + 10 µM EDTA; neutral pH; data not shown
Procedure: as §1, with “E. coli (strain 37.4), S. aureus (strain 5120), S. pyogenes (M5 Manfredo), S. agalactiae (SB1), and E. faecalis (strain 2374) were grown in THY medium (Todd Hewitt with addition of yeast) and on THY agar plates at 37°C with 5% (v/v) CO2. Candida” for “Candida”

E. coli (strain 37.4) = test: Antibacterial CFU assay; type: cell-based; details: purified MSP 10 µM + 20 µM EDTA or recombinant dialyzed MSP 10 µM + 10 µM EDTA; low and neutral pH; data not shown
Procedure: as §1, with “E. coli (strain 37.4), S. aureus (strain 5120), S. pyogenes (M5 Manfredo), S. agalactiae (SB1), and E. faecalis (strain 2374) were grown in THY medium (Todd Hewitt with addition of yeast) and on THY agar plates at 37°C with 5% (v/v) CO2. Candida” for “Candida”

S. agalactiae (SB1) = test: Antibacterial CFU assay; type: cell-based; details: purified MSP 10 µM + 20 µM EDTA or recombinant dialyzed MSP 10 µM + 10 µM EDTA; neutral pH; data not shown
Procedure: as §1, with “E. coli (strain 37.4), S. aureus (strain 5120), S. pyogenes (M5 Manfredo), S. agalactiae (SB1), and E. faecalis (strain 2374) were grown in THY medium (Todd Hewitt with addition of yeast) and on THY agar plates at 37°C with 5% (v/v) CO2. Candida” for “Candida”

[4] = tested on: E. faecalis (strain 2374); test: Antibacterial CFU assay; type: cell-based; details: purified MSP 10 µM + 20 µM EDTA or recombinant dialyzed MSP 10 µM + 10 µM EDTA; low and neutral pH; data not shown
Procedure: as §1, with “E. coli (strain 37.4), S. aureus (strain 5120), S. pyogenes (M5 Manfredo), S. agalactiae (SB1), and E. faecalis (strain 2374) were grown in THY medium (Todd Hewitt with addition of yeast) and on THY agar plates at 37°C with 5% (v/v) CO2. Candida” for “Candida”

S. aureus (strain 5120) = test: Antibacterial CFU assay; type: cell-based; details: purified MSP 10 µM + 20 µM EDTA or recombinant dialyzed MSP 10 µM + 10 µM EDTA; neutral pH; data not shown
Procedure: as §1, with “E. coli (strain 37.4), S. aureus (strain 5120), S. pyogenes (M5 Manfredo), S. agalactiae (SB1), and E. faecalis (strain 2374) were grown in THY medium (Todd Hewitt with addition of yeast) and on THY agar plates at 37°C with 5% (v/v) CO2. Candida” for “Candida”

Molecule: LL-37 [reference compound]
- Estimate (difference between means of log values) ([1]; 50 µM LL-37, pH 4, + 50 µM calcium, experiment 1): 1.6956
- Estimate (difference between means of log values) ([1]; 50 µM LL-37, pH 4, + 50 µM calcium, experiment 2): 1.8880
- Estimate (difference between means of log values) ([1]; 50 µM LL-37, pH 4, + 75 µM calcium, experiment 1): 1.5909
- Estimate (difference between means of log values) ([1]; 50 µM LL-37, pH 4, + 75 µM calcium, experiment 2): 1.5305
- Estimate (difference between means of log values) ([1]; 50 µM LL-37, pH 4, + 100 µM calcium, experiment 1): 1.3942
- Estimate (difference between means of log values) ([1]; 50 µM LL-37, pH 4, + 100 µM calcium, experiment 2): 1.4384
- Estimate (difference between means of log values) ([1]; 50 µM LL-37, pH 4, + 200 µM calcium, experiment 1): 1.3064
- Estimate (difference between means of log values) ([1]; 50 µM LL-37, pH 4, + 200 µM calcium, experiment 2): 1.4253
- Estimate (difference between means of log values) ([1]; 50 µM LL-37, pH 4, no calcium, experiment 1): 1.6339
- Estimate (difference between means of log values) ([1]; 50 µM LL-37, pH 4, no calcium, experiment 2): 2.4025
- Estimate (difference between means of log values) ([1]; 50 µM LL-37, pH 7.4, + 50 µM calcium, experiment 1): 2.0757
- Estimate (difference between means of log values) ([1]; 50 µM LL-37, pH 7.4, + 50 µM calcium, experiment 2): 2.0565
- Estimate (difference between means of log values) ([1]; 50 µM LL-37, pH 7.4, + 50 µM calcium, experiment 3): 2.6878
- Estimate (difference between means of log values) ([1]; 50 µM LL-37, pH 7.4, + 75 µM calcium, experiment 1): 1.1627
- Estimate (difference between means of log values) ([1]; 50 µM LL-37, pH 7.4, + 75 µM calcium, experiment 2): 2.6753
- Estimate (difference between means of log values) ([1]; 50 µM LL-37, pH 7.4, + 75 µM calcium, experiment 3): 2.9703
- Estimate (difference between means of log values) ([1]; 50 µM LL-37, pH 7.4, + 100 µM calcium, experiment 1): 1.6404
- Estimate (difference between means of log values) ([1]; 50 µM LL-37, pH 7.4, + 100 µM calcium, experiment 2): 2.5186
- Estimate (difference between means of log values) ([1]; 50 µM LL-37, pH 7.4, + 100 µM calcium, experiment 3): 2.6194
- Estimate (difference between means of log values) ([1]; 50 µM LL-37, pH 7.4, + 200 µM calcium, experiment 1): 1.4145
- Estimate (difference between means of log values) ([1]; 50 µM LL-37, pH 7.4, + 200 µM calcium, experiment 2): 2.7659
- Estimate (difference between means of log values) ([1]; 50 µM LL-37, pH 7.4, + 200 µM calcium, experiment 3): 3.5282
- Estimate (difference between means of log values) ([1]; 50 µM LL-37, pH 7.4, no calcium, experiment 1): 3.2986
- Estimate (difference between means of log values) ([1]; 50 µM LL-37, pH 7.4, no calcium, experiment 2): 3.2280
- Estimate (difference between means of log values) ([1]; 50 µM LL-37, pH 7.4, no calcium, experiment 3): 4.0296

Molecule: TNKCQKILNKKTCTYTVVEK [PMSP, peptide from porcine MSP corresponding to human MSP61–80]
- Effect of calcium and magnesium on antifungal activity ([1]; data not shown): inhibited by calcium but not magnesium
- Fungicidal activity compared with human MSP61–80 ([1]; pH 4, with and without EDTA, Figure S4): even higher fungicidal activity than its human counterpart
- Difference of mean colony counts between control and treatment ([1]; pH 4, with and without EDTA, three independent experiments): Significant difference (reduction)

Molecule: prostate specific antigen: major protein from the prostate [reference compound]
- Clearing zone in antifungal gel overlay assay (C. albicans): did not give rise to clearing zones

Molecule: O=C(O)CN(CCN(CC(=O)O)CC(=O)O)CC(=O)O [EDTA, reference compound]
- Estimate (difference between means of log values) ([1]; 25 µM, pH 4, experiment 1): 0.3309
- Estimate (difference between means of log values) ([1]; 25 µM, pH 4, experiment 2): -0.2077
- Estimate (difference between means of log values) ([1]; 25 µM, pH 4, experiment 3): -0.01878
- Liposome rupture [2]: no liposome rupture

Molecule: RKCMDLKGNKHPINSEWQTD [MSP2, synthetic MSP-derived peptide]
- Estimate (difference between means of log values) ([1]; 5 µM, pH 4, with EDTA, experiment 1): 0.5727
- Estimate (difference between means of log values) ([1]; 5 µM, pH 4, with EDTA, experiment 2): 0.2951
- Estimate (difference between means of log values) ([1]; 5 µM, pH 4, with EDTA, experiment 3): 0.5877
- Estimate (difference between means of log values) ([1]; 5 µM, pH 4, without EDTA, experiment 1): -0.4638
- Estimate (difference between means of log values) ([1]; 5 µM, pH 4, without EDTA, experiment 2): -0.7678
- Estimate (difference between means of log values) ([1]; 5 µM, pH 4, without EDTA, experiment 3): 0.2466

B1: recombinant MSP: Recombinant human β-microseminoprotein from R&D Systems (protein)
chain: SCYFIPNEGVPGDSTRKCMDLKGNKHPINSEWQTDNCETCTCYETEISCCTLVSTPVGYDKDNCQRIFKKEDCKYIVVEKKDPKKTCSVSEWII
- Antibacterial activity in CFU assay [3]: no antibacterial activity
- Antibacterial activity in CFU assay (E. coli (strain 37.4)): no antibacterial activity
- Antibacterial activity in CFU assay (S. agalactiae (SB1)): no antibacterial activity
- Antibacterial activity in CFU assay [4]: no antibacterial activity
- Antibacterial activity in CFU assay (S. aureus (strain 5120)): no antibacterial activity
- Fungicidal activity in CFU assay ([1]; native MSP 10 µM + 20 µM EDTA or recombinant dialyzed MSP 10 µM + 10 µM EDTA): prominent fungicidal activity
- Clearing zone in antifungal gel overlay assay (C. albicans): displayed antifungal activity by producing a clearing zone
